Some results are limits rather than exact numbers.

In this assay the target is H1047R PIK3CA enzyme (Homo sapiens, UniProt P42336, H1047R). Kind of assay: ADP-Glo Biochemical PIK3CA Kinase Assay. In general terms: ADP-Glo turns the ADP formed in a reaction into a luminescent signal.
H1047R PIK3CA enzyme, sequence (P42336 whole entry H1047R): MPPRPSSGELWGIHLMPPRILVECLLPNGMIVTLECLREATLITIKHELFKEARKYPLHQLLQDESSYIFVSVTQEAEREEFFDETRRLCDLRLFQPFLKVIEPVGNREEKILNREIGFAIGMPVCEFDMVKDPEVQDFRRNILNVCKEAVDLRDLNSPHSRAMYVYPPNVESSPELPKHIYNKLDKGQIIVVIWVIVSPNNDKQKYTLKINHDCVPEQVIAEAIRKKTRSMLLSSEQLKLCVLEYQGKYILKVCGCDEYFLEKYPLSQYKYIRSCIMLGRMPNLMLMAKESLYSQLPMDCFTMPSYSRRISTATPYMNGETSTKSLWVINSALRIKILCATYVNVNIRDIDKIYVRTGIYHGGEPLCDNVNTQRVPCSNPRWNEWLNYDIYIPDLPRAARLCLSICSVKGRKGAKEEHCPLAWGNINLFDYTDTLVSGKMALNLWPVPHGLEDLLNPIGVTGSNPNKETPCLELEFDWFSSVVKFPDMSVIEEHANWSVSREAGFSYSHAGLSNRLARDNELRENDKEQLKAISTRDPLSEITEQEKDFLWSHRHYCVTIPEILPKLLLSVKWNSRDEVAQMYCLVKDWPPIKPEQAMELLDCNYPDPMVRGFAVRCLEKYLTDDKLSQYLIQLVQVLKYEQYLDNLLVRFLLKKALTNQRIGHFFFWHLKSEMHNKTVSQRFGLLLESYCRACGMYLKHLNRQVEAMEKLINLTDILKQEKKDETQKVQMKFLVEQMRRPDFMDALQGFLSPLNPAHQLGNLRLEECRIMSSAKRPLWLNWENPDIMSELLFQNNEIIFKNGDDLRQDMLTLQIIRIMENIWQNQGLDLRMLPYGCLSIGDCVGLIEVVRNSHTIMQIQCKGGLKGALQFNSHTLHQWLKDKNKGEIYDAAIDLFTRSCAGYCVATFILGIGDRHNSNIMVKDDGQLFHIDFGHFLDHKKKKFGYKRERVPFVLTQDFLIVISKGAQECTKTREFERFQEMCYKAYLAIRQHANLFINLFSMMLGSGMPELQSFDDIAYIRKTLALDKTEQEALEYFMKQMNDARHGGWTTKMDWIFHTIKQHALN
H1047R PIK3CA enzyme, sequence (P27986 whole entry partner): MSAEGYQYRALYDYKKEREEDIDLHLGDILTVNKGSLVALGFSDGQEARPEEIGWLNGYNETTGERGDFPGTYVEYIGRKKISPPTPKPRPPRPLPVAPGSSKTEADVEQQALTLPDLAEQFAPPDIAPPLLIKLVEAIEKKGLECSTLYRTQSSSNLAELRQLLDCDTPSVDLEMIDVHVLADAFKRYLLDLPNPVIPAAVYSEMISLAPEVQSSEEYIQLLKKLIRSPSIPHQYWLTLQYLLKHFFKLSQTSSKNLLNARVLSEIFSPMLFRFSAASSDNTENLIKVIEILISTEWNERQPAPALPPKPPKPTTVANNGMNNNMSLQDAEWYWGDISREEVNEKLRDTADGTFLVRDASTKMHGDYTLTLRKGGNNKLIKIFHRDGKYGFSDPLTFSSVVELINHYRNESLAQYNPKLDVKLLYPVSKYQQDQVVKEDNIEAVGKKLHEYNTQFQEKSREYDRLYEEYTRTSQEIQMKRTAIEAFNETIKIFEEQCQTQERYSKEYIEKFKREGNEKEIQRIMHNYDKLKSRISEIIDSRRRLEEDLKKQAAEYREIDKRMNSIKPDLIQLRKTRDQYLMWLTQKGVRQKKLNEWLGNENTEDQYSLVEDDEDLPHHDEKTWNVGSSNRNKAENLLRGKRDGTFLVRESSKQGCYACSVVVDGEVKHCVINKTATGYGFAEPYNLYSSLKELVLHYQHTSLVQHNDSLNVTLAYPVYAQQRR
As a reminder, the IC50 is the concentration that inhibits the measured activity by half. Read a high IC50 as weaker potency in that assay. Consider `CC[C@@H](CC(=O)Nc1cccc2c1[C@H](c1cc(F)ccc1Cl)NC2=O)[C@H](C)C(F)(F)F` (single isomer, unassigned) [Compound I-2336], for which the IC50 fell in the range of 1000 to 10000 nM.
On to `CC[C@@H](CC(=O)Nc1cccc2c1[C@@H](c1cc(F)ccc1Cl)NC2=O)[C@H](C)C(F)(F)F` (single isomer, unassigned) [Compound I-2337], for which the IC50 is 10000 to 100000 nM.
The compound `CC[C@H](CC(=O)Nc1cccc2c1[C@@H](c1cc(F)ccc1Cl)NC2=O)[C@@H](C)C(F)(F)F` (single isomer, unassigned) [Compound I-2338] gave an IC50 of 10000 to 100000 nM.
In the case of `O=C1N[C@@H](c2cc(F)ccc2Cl)c2c(NC(=O)N3C[C@H](O)c4cc(F)ccc43)cc(-n3nccn3)cc21` (single isomer, unassigned) [Compound I-2342] it was 100 to 500 nM.
As for `O=C1N[C@@H](c2cc(F)ccc2Cl)c2c(NC(=O)N3C[C@H](O)c4cc(F)ccc43)cc(-n3nccn3)cc21` (single isomer, unassigned) [Compound I-2343], the IC50 lay in the range of 1000 to 10000 nM.
For `O=C1N[C@H](c2cc(F)ccc2Cl)c2c(NC(=O)N3C[C@@H](O)c4cc(F)ccc43)cc(-n3nccn3)cc21` (single isomer, unassigned) [Compound I-2344], the IC50 was 1000 to 10000 nM.
The compound `O=C1N[C@H](c2cc(F)ccc2Cl)c2c(NC(=O)N3C[C@@H](O)c4cc(F)ccc43)cc(-n3nccn3)cc21` (single isomer, unassigned) [Compound I-2345] came in with an IC50 of 1000 to 10000 nM.
In turn, `N#CCCc1cc(NC(=O)N2C[C@@H](O)c3cc(F)ccc32)c2c(c1)C(=O)N[C@H]2c1cc(F)ccc1Cl` (single isomer, unassigned) [Compound I-2347] showed an IC50 of 100 to 500 nM.
`N#CCCc1cc(NC(=O)N2C[C@@H](O)c3cc(F)ccc32)c2c(c1)C(=O)N[C@@H]2c1cc(F)ccc1Cl` (single isomer, unassigned) [Compound I-2348] returned an IC50 of 1000 to 10000 nM.
`N#CCCc1cc(NC(=O)N2C[C@H](O)c3cc(F)ccc32)c2c(c1)C(=O)N[C@@H]2c1cc(F)ccc1Cl` (single isomer, unassigned) [Compound I-2349] came in with an IC50 of 1000 to 10000 nM.
With `O=C1N[C@@H](c2cc(F)ccc2Cl)c2c(NC(=O)N3C[C@@H](O)c4cc(F)ccc43)cc(-n3ccccc3=O)cc21` (single isomer, unassigned) [Compound I-2351], the IC50 lay within 100 to 500 nM.
With `O=C1N[C@H](c2cc(F)ccc2Cl)c2c(NC(=O)N3C[C@@H](O)c4cc(F)ccc43)cc(-n3ccccc3=O)cc21` (single isomer, unassigned) [Compound I-2352], the IC50 was in the range of 1000 to 10000 nM.
For the compound `O=C1N[C@H](c2cc(F)ccc2Cl)c2c(NC(=O)N3C[C@H](O)c4cc(F)ccc43)cc(-n3ccccc3=O)cc21` (single isomer, unassigned) [Compound I-2353], the IC50 was in the range of 1000 to 10000 nM.
Consider `O=C1N[C@H](c2cc(F)ccc2Cl)c2c(NC(=O)N3CCc4cc(F)ccc43)cc(-c3cnn(C(F)F)c3)cc21` (single isomer, unassigned) [Compound I-2356], for which the IC50 is 1000 to 10000 nM.
On to `O=C1N[C@H](c2cc(F)ccc2Cl)c2c(NC(=O)N3C[C@@H](O)c4cc(F)ccc43)cc(-n3cccn3)cc21` (single isomer, unassigned) [Compound I-2365], for which the IC50 is 500 to 1000 nM.
Regarding `O=C1N[C@@H](c2cc(F)ccc2Cl)c2c(NC(=O)N3C[C@@H](O)c4cc(F)ccc43)cc(-n3cccn3)cc21` (single isomer, unassigned) [Compound I-2366], the IC50 fell in the range of 1000 to 10000 nM.
For `O=C1N[C@H](c2cc(F)ccc2Cl)c2c(NC(=O)N3C[C@H](O)c4cc(F)ccc43)cc(-n3cccn3)cc21` (single isomer, unassigned) [Compound I-2367], the IC50 was 1000 to 10000 nM.
Compound `O=C1N[C@@H](c2cc(F)ccc2Cl)c2c(NC(=O)N3C[C@H](O)c4cc(F)ccc43)cc(-n3ccnn3)cc21` (single isomer, unassigned) [Compound I-2368] gave an IC50 of 1000 to 10000 nM.
Compound `O=C1N[C@@H](c2cc(F)ccc2Cl)c2c(NC(=O)N3C[C@@H](O)c4cc(F)ccc43)cc(-n3ccnn3)cc21` (single isomer, unassigned) [Compound I-2370] displayed an IC50 of 500 to 1000 nM.
With `O=C1N[C@H](c2cc(F)ccc2Cl)c2c(NC(=O)N3C[C@@H](O)c4cc(F)ccc43)cc(-n3ccnn3)cc21` (single isomer, unassigned) [Compound I-2371] the figure was 1000 to 10000 nM.
The compound `C[C@@H]([C@H]1C[C@H](O)CN1C(=O)Nc1cccc2c1[C@H](c1cc(F)ccc1Cl)NC2=O)C(F)(F)F` (single isomer, unassigned) [Compound I-2378] had an IC50 of 10000 to 100000 nM.
With `C[C@H]([C@H]1C[C@H](O)CN1C(=O)Nc1cccc2c1[C@H](c1cc(F)ccc1Cl)NC2=O)C(F)(F)F` (single isomer, unassigned) [Compound I-2379] the figure was 10000 to 100000 nM; with `O=C1N[C@H](c2cc(F)ccc2Cl)c2c(NC(=O)N3C[C@@](O)(C(F)(F)F)c4ccccc43)cccc21` (single isomer, unassigned) [Compound I-2383], 10000 to 100000 nM; with `O=C1N[C@@H](c2cc(F)ccc2Cl)c2c(NC(=O)N3C[C@](O)(C(F)(F)F)c4ccccc43)cccc21` (single isomer, unassigned) [Compound I-2384], 1000 to 10000 nM.
`O=C1N[C@H](c2cc(F)ccc2Cl)c2c(NC(=O)N3C[C@](O)(C(F)(F)F)c4ccccc43)cccc21` (single isomer, unassigned) [Compound I-2385] showed an IC50 of 1000 to 10000 nM.
On to `O=C(Nc1cc(/N=C2/N[C@H](C(F)(F)F)CO2)cc2c1[C@@H](c1cc(F)ccc1Cl)NC2=O)c1cc(F)cc(C(F)(F)F)c1` (single isomer, unassigned) [Compound I-2389], for which the IC50 was 1000 to 10000 nM.
`O=C(Nc1cc(/N=C2/N[C@@H](C(F)(F)F)CO2)cc2c1[C@@H](c1cc(F)ccc1Cl)NC2=O)c1cc(F)cc(C(F)(F)F)c1` (single isomer, unassigned) [Compound I-2390] came in with an IC50 of 1000 to 10000 nM.
On to `C[C@@H]([C@@H]1C[C@H](O)CN1C(=O)Nc1cccc2c1[C@H](c1cc(F)ccc1Cl)NC2=O)C(F)(F)F` (single isomer, unassigned) [Compound I-2393], for which the IC50 was 500 to 1000 nM.
As to `O=C1N[C@H](c2cc(F)ccc2Cl)c2c(NC(=O)N3C[C@H](O)c4cc(F)ccc43)cc(Cl)cc21` (single isomer, unassigned) [Compound I-2399], the IC50 was in the range of 1000 to 10000 nM.
On to `O=C1N[C@@H](c2cc(F)ccc2Cl)c2c(NC(=O)N3C[C@H](O)c4cc(F)ccc43)cc(Cl)cc21` (single isomer, unassigned) [Compound I-2400], for which the IC50 fell in the range of 100 to 500 nM.
`O=C1N[C@@H](c2cc(F)ccc2Cl)c2c(NC(=O)N3C[C@@H](O)c4cc(F)ccc43)cc(Cl)cc21` (single isomer, unassigned) [Compound I-2401] gave an IC50 of 10000 to 100000 nM.
In the case of `N#Cc1cnn(-c2cc(NC(=O)N3C[C@@H](O)c4cc(F)ccc43)c3c(c2)C(=O)N[C@H]3c2cc(F)ccc2Cl)c1` (single isomer, unassigned) [Compound I-2405] it was at most 100 nM; in that of `N#Cc1cnn(-c2cc(NC(=O)N3C[C@H](O)c4cc(F)ccc43)c3c(c2)C(=O)N[C@@H]3c2cc(F)ccc2Cl)c1` (single isomer, unassigned) [Compound I-2406], 1000 to 10000 nM; in that of `Nc1cc(NC(=O)N2C[C@H](O)c3cc(F)ccc32)c2c(c1)C(=O)N[C@@H]2c1cc(F)ccc1Cl` (single isomer, unassigned) [Compound I-2412], 1000 to 10000 nM.
For `Nc1cc(NC(=O)N2C[C@H](O)c3cc(F)ccc32)c2c(c1)C(=O)N[C@H]2c1cc(F)ccc1Cl` (single isomer, unassigned) [Compound I-2413], the IC50 was 10000 to 100000 nM.
`CC(C)(C)C1CCCN1C(=O)Nc1cccc2c1C(c1cc(F)ccc1Cl)NC2=O` (single isomer, unassigned) [Compound I-2432] gave an IC50 of 500 to 1000 nM.
`CC(C)(C)C1CCCN1C(=O)Nc1cccc2c1C(c1cc(F)ccc1Cl)NC2=O` (single isomer, unassigned) [Compound I-2433] returned an IC50 of 1000 to 10000 nM.
In turn, `NCCc1cc(NC(=O)N2C[C@@H](O)c3cc(F)ccc32)c2c(c1)C(=O)N[C@@H]2c1cc(F)ccc1Cl` (single isomer, unassigned) [Compound I-2444] gave an IC50 of 100 to 500 nM.
`NCCc1cc(NC(=O)N2C[C@H](O)c3cc(F)ccc32)c2c(c1)C(=O)N[C@H]2c1cc(F)ccc1Cl` (single isomer, unassigned) [Compound I-2445] came in with an IC50 of 1000 to 10000 nM.
On to `NCCc1cc(NC(=O)N2C[C@@H](O)c3cc(F)ccc32)c2c(c1)C(=O)N[C@H]2c1cc(F)ccc1Cl` (single isomer, unassigned) [Compound I-2446], for which the IC50 lay in the range of 1000 to 10000 nM.
Compound `O=C1N[C@H](c2cc(F)ccc2Cl)c2c(NC(=O)N3C[C@@H](O)c4cc(F)ccc43)cc(-c3ccc(=O)n(C(F)F)c3)cc21` (single isomer, unassigned) [Compound I-2449] displayed an IC50 of 100 to 500 nM.
Regarding `O=C1N[C@@H](c2cc(F)ccc2Cl)c2c(NC(=O)N3C[C@H](O)c4cc(F)ccc43)cc(-c3ccc(=O)n(C(F)F)c3)cc21` (single isomer, unassigned) [Compound I-2450], the IC50 lay within 1000 to 10000 nM.
`O=C1N[C@@H](c2cc(F)ccc2Cl)c2c(NC(=O)N3C[C@@H](O)c4cc(F)ccc43)cc(-c3ccc(=O)n(C(F)F)c3)cc21` (single isomer, unassigned) [Compound I-2451] yielded an IC50 of 1000 to 10000 nM.
As for `CC(C)[C@@]1(O)CN(C(=O)Nc2cccc3c2[C@H](c2cc(F)ccc2Cl)NC3=O)c2ccc(F)cc21` (single isomer, unassigned) [Compound I-2452], the IC50 was in the range of 1000 to 10000 nM.
`CC(C)[C@]1(O)CN(C(=O)Nc2cccc3c2[C@H](c2cc(F)ccc2Cl)NC3=O)c2ccc(F)cc21` (single isomer, unassigned) [Compound I-2453] showed an IC50 of 1000 to 10000 nM.
With `CC(C)[C@@]1(O)CN(C(=O)Nc2cccc3c2[C@@H](c2cc(F)ccc2Cl)NC3=O)c2ccc(F)cc21` (single isomer, unassigned) [Compound I-2454] the figure was 100 to 500 nM; with `CC(C)[C@]1(O)CN(C(=O)Nc2cccc3c2[C@@H](c2cc(F)ccc2Cl)NC3=O)c2ccc(F)cc21` (single isomer, unassigned) [Compound I-2455], 1000 to 10000 nM.

Source of the values: patent US12581252B2, “Substituted pyrrolo[3,4-b]pyridines as PI3K-α inhibitors” (Relay Therapeutics, Inc., priority 2020, dated 2026).
